Assay: Water solubility (dissolution in water)
Method: Stability of this compound was determined by dissolving small amounts in water, pH 7.8 phosphate buffer and methanol.
The stability of the product is determined by dissolving in deionized water and pH 7.26 phosphate buffer.

Nc1c2c(nc3ccccc13)CCCC2 [Tacrine, tacrine]
WATER SOLUBILITY (in words): Insoluble
